Assay results: patent US20220265646A1, “PIEZO AGONISTS FOR PREVENTING OR REVERTING ABNORMAL AMYLOID DEPOSITION” (ITÄ-SUOMEN YLIOPISTO, priority 2019, published 2022)

What was measured:
[1] = tested on: Balb-c mice subjected to pMCAo; experiment: Permanent middle cerebral artery occlusion (pMCAo) ischemic stroke model: MRI lesion size and adhesive removal test; assay type: in vivo, mouse; conditions: 1.78 mg/kg i.v.
Description: Permanent middle cerebral artery occlusion for modelling ischemic stroke and treatment with Yoda. Balb-c mice were subjected to permanent middle cerebral artery occlusion (pMCAo). The anaesthesia was induced by 5% isoflurane in 30% oxygen and 70% nitrogen as a carrier gas and maintained with 2% isoflurane during the surgical operation. The temperature was kept constant (37 ±1° C.) using the heating blanket connected to the rectal probe (Harvard apparatus, PanLab, Barcelona, Spain). The temporal muscle was detached from the scull and a hole (1 mm of diameter) was drilled to temporal bone. After removing the dura the exposed left MCA was lifted and occluded using a thermocoagulator (Aaron Medical Industries Inc., Clearwater, Fla., USA). […]
Lesion size measurement. The lesion volume was measured in vivo at 24 h and 72 h post ischemia by magnetic resonance imaging (MRI) using a vertical 9.4 T Oxford NMR 400 magnet (Oxford Instrument PLC, Abington, UK). […] Multislice T2-weighted images (repetition time 3000 ms, echo time 40 ms, matrix size 128×256, field of view 19.2×19.2 mm^2, slice thickness 0.8 mm and number of slices 12) were taken and the obtained images were analyzed with in-house made Aedes software under the Matlab environment (Math-works, Natick, Mass., USA).

[2] = tested on: 5xFAD transgenic mice modeling Alzheimer's disease; experiment: 5xFAD transgenic mice, intraventricular cannula infusion, immunohistochemistry for Iba1 and Aβ (WO2); assay type: in vivo, mouse; conditions: 5xFAD mice, treated for 2 weeks
Source text: To evaluate the effect of microglial Piezo1 Rs mechanosensor in vivo the present inventors used 5-month-old transgenic SXFAD male mice (Jackson Laboratories, Bar Harbor, Me., US) which were randomly divided into 3 groups. 5xFAD mice express human APP and PSEN1 transgenes with a total of five AD-linked mutations: the Swedish (K670N/M671L), Florida (1716V), and London (V7171) mutations in APP, and the M146L and L286V mutations in Presenilin-1 (PSEN1). These widely used mice recapitulate many AD-related phenotypes and have a relatively early and aggressive presentation. Amyloid plaques, accompanied by gliosis, are seen in mice as young as two months of age. Amyloid pathology is more severe in females than in males. Neuron loss occurs in multiple brain regions, beginning at about 5 months in the areas with the most pronounced amyloidosis. Mice display a range of cognitive and motor deficits. The animals were implanted with the intraventricular cannulas. Briefly, surgical anesthesia was induced using 5% isoflurane and maintained with 1.8% isoflurane (in 30% 02/70% N20). The temperature of the animals was maintained at 37±0.5° C. using a thermostatically controlled heating blanket with a rectal probe (Pan Lab, Harvard Apparatus). After the skull was exposed a small hole approximately 1 mm in diameter was drilled into the left hemisphere of the skull using following coordinates: m/l (medial/lateral) +1.1 mm, a/p (anterior/posterior) −0.3 mm, d/v (dorsal/ventral) −2.0 mm. […]
Brain sample preparation and Immunohistochemistry. […] Next, Aβ deposits and microglial were detected. […] For quantification of Aβ and Iba1 immunoreactivities, the stained sections were imaged using 10× magnification in Zeiss Axio ImagerM.2 microscope equipped with Axiocam 506 mono CCD camera (Carl Zeiss, Oberkochen) running ZEN software (Carl Zeiss) for tailing and stitching of the images. Cortical and hippocampal Aβ and Iba1 immunoreactivities were quantified from 6 stained sections at 400 μm intervals per animal using MatLab code (MathWorks, MatLab 2017b). […]

[3] = 0.05 μg/μl, 5 μl infusion once a day

With `Clc1cccc(Cl)c1CSc1nnc(-c2cnccn2)s1` [Yoda1] the “lesion size measured with MRI” value ([1]; 1 DPI and 3 DPI, versus vehicle) was “significantly smaller lesion size”, the “ability to sense adhesive patches post stroke (adhesive removal test)” value ([1]; ischemic mice) was “no apparent deficits” and the “microglial accumulation near the Aβ deposits” value [2] was “enhanced microglial accumulation”. For the same compound, the “Iba1 immunoreactivity in cortex and hippocampus” value [2, 3] was “significantly increased” and the “extent of brain Aβ load in cortex and hippocampi (WO2 staining)” value [2, 3] was “significant reduction”.
